Test results: patent publication US9707305B2, “Formulas for diagnosing and treating hormone-dependent cancers and cancers of the organs responsible for steroid hormone synthesis” (Commissariat à l'énergie atomique et aux énergies …, priority 2011, dated 2017)

Test: Biodistribution of the nano-emulsion of Example 1.1 in male mice (Tables 15 to 21)
Assay type: in vivo
Settings: FVB male mouse
Protocol: In the following examples, the radioactivity was counted with the TRiCarb Counter (Ref: Packard, Liquid Scintillation Analyzers; Models 2200CA).
Fluobeam 700 (Fluoptics) is the apparatus with which the whole of the organs from the biodistribution were analyzed in fluorescence as well as the one with which the biodistribution kinetics of the nano-emulsions were established in vivo. This imaging system allows viewing of the fluorescence in spectral bands from 700 to 850 nm for a 650 nm excitation. The apparatus consists of an electric case containing the laser of class 3B, its power supply and an optical head containing the CCD camera. […]

SMILES: CCCCCCCCCCCCCCCCO[C@H]1CC[C@@]2(C)C(=CC[C@H]3[C@@H]4CC[C@H]([C@H](C)CCCC(C)C)[C@@]4(C)CC[C@@H]32)C1 [[3H]CHE, cholesteryl hexadecylether]
- tracer in Heart (2 h): 9.84 percentage of the dose injected per gram of tissue
- tracer in Heart (4 h): 7.57 percentage of the dose injected per gram of tissue
- tracer in Heart (6 h): 8.52 percentage of the dose injected per gram of tissue
- tracer in Heart (16 h): 8.50 percentage of the dose injected per gram of tissue
- tracer in Heart (24 h): 5.76 percentage of the dose injected per gram of tissue
- tracer in Heart (48 h): 6.05 percentage of the dose injected per gram of tissue
- tracer in Heart (72 h): 7.83 percentage of the dose injected per gram of tissue
- tracer in Intestine (2 h): 2.44 percentage of the dose injected per gram of tissue
- tracer in Intestine (4 h): 1.98 percentage of the dose injected per gram of tissue
- tracer in Intestine (6 h): 2.549 percentage of the dose injected per gram of tissue
- tracer in Intestine (16 h): 5.19 percentage of the dose injected per gram of tissue
- tracer in Intestine (24 h): 3.41 percentage of the dose injected per gram of tissue
- tracer in Intestine (48 h): 3.50 percentage of the dose injected per gram of tissue
- tracer in Intestine (72 h): 3.47 percentage of the dose injected per gram of tissue
- tracer in Kidney (2 h): 5.29 percentage of the dose injected per gram of tissue
- tracer in Kidney (4 h): 3.14 percentage of the dose injected per gram of tissue
- tracer in Kidney (6 h): 3.336 percentage of the dose injected per gram of tissue
- tracer in Kidney (16 h): 2.40 percentage of the dose injected per gram of tissue
- tracer in Kidney (24 h): 1.80 percentage of the dose injected per gram of tissue
- tracer in Kidney (48 h): 1.77 percentage of the dose injected per gram of tissue
- tracer in Kidney (72 h): 1.82 percentage of the dose injected per gram of tissue
- tracer in Liver (2 h): 22.67 percentage of the dose injected per gram of tissue
- tracer in Liver (4 h): 17.25 percentage of the dose injected per gram of tissue
- tracer in Liver (6 h): 22.609 percentage of the dose injected per gram of tissue
- tracer in Liver (16 h): 40.91 percentage of the dose injected per gram of tissue
- tracer in Liver (24 h): 30.93 percentage of the dose injected per gram of tissue
- tracer in Liver (48 h): 24.53 percentage of the dose injected per gram of tissue
- tracer in Liver (72 h): 24.97 percentage of the dose injected per gram of tissue
- tracer in Lung (2 h): 5.08 percentage of the dose injected per gram of tissue
- tracer in Lung (4 h): 2.98 percentage of the dose injected per gram of tissue
- tracer in Lung (6 h): 3.771 percentage of the dose injected per gram of tissue
- tracer in Lung (16 h): 5.31 percentage of the dose injected per gram of tissue
- tracer in Lung (24 h): 2.88 percentage of the dose injected per gram of tissue
- tracer in Lung (48 h): 3.02 percentage of the dose injected per gram of tissue
- tracer in Lung (72 h): 3.04 percentage of the dose injected per gram of tissue
- tracer in Muscle (2 h): 0.99 percentage of the dose injected per gram of tissue
- tracer in Muscle (4 h): 0.56 percentage of the dose injected per gram of tissue
- tracer in Muscle (6 h): 0.77 percentage of the dose injected per gram of tissue
- tracer in Muscle (16 h): 0.97 percentage of the dose injected per gram of tissue
- tracer in Muscle (24 h): 0.38 percentage of the dose injected per gram of tissue
- tracer in Muscle (48 h): 0.63 percentage of the dose injected per gram of tissue
- tracer in Muscle (72 h): 0.49 percentage of the dose injected per gram of tissue
- tracer in Ovary (Ovary, 24 h): 1.71 percentage of the dose injected per gram of tissue
- tracer in Pancreas (2 h): 1.64 percentage of the dose injected per gram of tissue
- tracer in Pancreas (4 h): 1.50 percentage of the dose injected per gram of tissue
- tracer in Pancreas (6 h): 1.67 percentage of the dose injected per gram of tissue
- tracer in Pancreas (16 h): 1.92 percentage of the dose injected per gram of tissue
- tracer in Pancreas (24 h): 1.31 percentage of the dose injected per gram of tissue
- tracer in Pancreas (48 h): 0.99 percentage of the dose injected per gram of tissue
- tracer in Pancreas (72 h): 1.12 percentage of the dose injected per gram of tissue
- tracer in Salivary gland (2 h): 1.53 percentage of the dose injected per gram of tissue
- tracer in Salivary gland (4 h): 1.26 percentage of the dose injected per gram of tissue
- tracer in Salivary gland (6 h): 2.10 percentage of the dose injected per gram of tissue
- tracer in Salivary gland (16 h): 2.68 percentage of the dose injected per gram of tissue
- tracer in Salivary gland (24 h): 1.57 percentage of the dose injected per gram of tissue
- tracer in Salivary gland (48 h): 2.07 percentage of the dose injected per gram of tissue
- tracer in Salivary gland (72 h): 2.36 percentage of the dose injected per gram of tissue
- tracer in Seminal gland (4 h): 0.50 percentage of the dose injected per gram of tissue
- tracer in Seminal gland (6 h): 0.54 percentage of the dose injected per gram of tissue
- tracer in Seminal gland (16 h): 0.64 percentage of the dose injected per gram of tissue
- tracer in Seminal gland (24 h): 0.35 percentage of the dose injected per gram of tissue
- tracer in Seminal gland (48 h): 0.35 percentage of the dose injected per gram of tissue
- tracer in Seminal gland (72 h): 0.58 percentage of the dose injected per gram of tissue
- tracer in Seminal glands (Seminal glands, 2 h): 0.79 percentage of the dose injected per gram of tissue
- tracer in Spleen (2 h): 7.15 percentage of the dose injected per gram of tissue
- tracer in Spleen (4 h): 5.31 percentage of the dose injected per gram of tissue
- tracer in Spleen (6 h): 6.453 percentage of the dose injected per gram of tissue
- tracer in Spleen (16 h): 9.19 percentage of the dose injected per gram of tissue
- tracer in Spleen (24 h): 6.65 percentage of the dose injected per gram of tissue
- tracer in Spleen (48 h): 11.18 percentage of the dose injected per gram of tissue
- tracer in Spleen (72 h): 6.40 percentage of the dose injected per gram of tissue
- tracer in Testicle (2 h): 1.36 percentage of the dose injected per gram of tissue
- tracer in Testicle (4 h): 1.35 percentage of the dose injected per gram of tissue
- tracer in Testicle (6 h): 2.000 percentage of the dose injected per gram of tissue
- tracer in Testicle (16 h): 2.95 percentage of the dose injected per gram of tissue
- tracer in Testicle (48 h): 2.97 percentage of the dose injected per gram of tissue
- tracer in Testicle (72 h): 4.34 percentage of the dose injected per gram of tissue
